Source: US20090118332A1, “Therapeutic Agents - 551” (AstraZeneca AB, priority 2006, published 2009)

Molecular target: T1, human Fatty Acid Synthase (Homo sapiens, UniProt P49327)
T1 construct: made in house
Test: Human FAS enzyme assay (decrease in NADPH fluorescence)
Assay type: biochemical
Conditions: % inhibition at a concentration of 100 μmolar
Summary of the method: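 In-house human FAS was preincubated with compound and NADPH for 15 min at room temperature in 0.1 M Tris pH 7.5 with EDTA, glutathione and BSA. Malonyl CoA and acetyl CoA (500 μM and 150 μM in the added mix) were then added for 60 min. IC50 came from time-zero-subtracted NADPH fluorescence (340/460 nm).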

T1 sequence (P49327 whole entry): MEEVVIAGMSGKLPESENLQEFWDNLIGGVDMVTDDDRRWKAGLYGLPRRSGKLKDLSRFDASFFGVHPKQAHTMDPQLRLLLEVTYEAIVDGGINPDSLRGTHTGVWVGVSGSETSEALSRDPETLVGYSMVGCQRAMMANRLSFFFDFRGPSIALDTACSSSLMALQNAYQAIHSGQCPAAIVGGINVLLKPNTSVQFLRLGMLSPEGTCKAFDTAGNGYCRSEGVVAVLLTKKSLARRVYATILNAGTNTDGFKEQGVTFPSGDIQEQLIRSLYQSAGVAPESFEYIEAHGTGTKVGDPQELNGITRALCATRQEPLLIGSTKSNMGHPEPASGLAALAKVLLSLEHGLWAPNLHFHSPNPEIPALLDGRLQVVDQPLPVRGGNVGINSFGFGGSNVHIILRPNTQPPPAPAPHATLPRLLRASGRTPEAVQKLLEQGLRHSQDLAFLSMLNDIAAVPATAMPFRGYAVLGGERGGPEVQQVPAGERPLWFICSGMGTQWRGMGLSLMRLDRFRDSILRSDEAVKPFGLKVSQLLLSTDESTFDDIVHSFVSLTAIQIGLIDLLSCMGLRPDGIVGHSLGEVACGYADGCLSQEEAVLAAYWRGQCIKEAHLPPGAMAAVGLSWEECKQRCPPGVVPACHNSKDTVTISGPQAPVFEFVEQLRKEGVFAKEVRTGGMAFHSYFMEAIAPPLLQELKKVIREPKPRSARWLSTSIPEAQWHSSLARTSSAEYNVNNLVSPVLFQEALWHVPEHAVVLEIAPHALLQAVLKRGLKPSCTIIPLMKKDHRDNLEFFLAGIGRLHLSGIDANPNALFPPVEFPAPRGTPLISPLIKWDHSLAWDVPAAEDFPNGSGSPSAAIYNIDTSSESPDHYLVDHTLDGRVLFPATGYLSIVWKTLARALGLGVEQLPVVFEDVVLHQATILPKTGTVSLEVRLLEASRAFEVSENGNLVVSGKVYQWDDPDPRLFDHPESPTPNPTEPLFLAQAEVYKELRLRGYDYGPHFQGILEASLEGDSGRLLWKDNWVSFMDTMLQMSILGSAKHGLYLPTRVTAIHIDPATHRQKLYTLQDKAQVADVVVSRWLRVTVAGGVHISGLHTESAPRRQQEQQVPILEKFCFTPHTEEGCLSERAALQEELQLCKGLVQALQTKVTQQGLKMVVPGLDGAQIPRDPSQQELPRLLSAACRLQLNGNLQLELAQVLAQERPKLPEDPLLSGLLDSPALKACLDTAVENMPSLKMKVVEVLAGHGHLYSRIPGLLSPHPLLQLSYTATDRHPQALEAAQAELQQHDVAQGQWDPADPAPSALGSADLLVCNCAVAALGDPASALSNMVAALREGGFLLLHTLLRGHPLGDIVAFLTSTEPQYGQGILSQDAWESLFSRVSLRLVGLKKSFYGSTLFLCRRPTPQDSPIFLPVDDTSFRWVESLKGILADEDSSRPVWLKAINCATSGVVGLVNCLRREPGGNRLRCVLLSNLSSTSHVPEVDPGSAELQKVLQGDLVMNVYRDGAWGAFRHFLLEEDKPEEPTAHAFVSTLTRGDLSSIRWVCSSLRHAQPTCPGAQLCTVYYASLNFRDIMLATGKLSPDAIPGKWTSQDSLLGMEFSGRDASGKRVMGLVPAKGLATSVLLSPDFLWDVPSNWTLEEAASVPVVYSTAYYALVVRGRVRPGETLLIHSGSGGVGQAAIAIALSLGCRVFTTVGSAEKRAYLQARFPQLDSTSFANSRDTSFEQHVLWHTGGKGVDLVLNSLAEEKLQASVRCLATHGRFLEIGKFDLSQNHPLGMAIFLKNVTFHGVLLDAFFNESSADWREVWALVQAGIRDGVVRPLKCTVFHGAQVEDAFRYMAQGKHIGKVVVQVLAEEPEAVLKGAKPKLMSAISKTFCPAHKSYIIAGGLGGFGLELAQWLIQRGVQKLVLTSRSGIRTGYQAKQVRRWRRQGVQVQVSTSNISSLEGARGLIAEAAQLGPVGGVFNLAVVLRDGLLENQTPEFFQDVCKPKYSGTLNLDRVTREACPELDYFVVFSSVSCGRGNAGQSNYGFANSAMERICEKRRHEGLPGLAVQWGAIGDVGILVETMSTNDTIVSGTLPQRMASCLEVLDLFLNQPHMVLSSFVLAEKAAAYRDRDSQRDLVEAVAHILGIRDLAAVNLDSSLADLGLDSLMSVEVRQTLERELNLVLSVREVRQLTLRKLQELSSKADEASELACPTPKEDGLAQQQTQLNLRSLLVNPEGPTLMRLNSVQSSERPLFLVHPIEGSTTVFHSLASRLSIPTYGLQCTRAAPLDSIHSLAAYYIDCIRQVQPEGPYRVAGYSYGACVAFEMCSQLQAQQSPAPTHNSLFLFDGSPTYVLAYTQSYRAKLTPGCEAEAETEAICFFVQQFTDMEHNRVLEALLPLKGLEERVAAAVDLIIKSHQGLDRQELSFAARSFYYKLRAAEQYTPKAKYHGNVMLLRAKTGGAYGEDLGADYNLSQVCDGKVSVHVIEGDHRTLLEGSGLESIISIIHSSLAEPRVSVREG

Structure (SMILES)	inhibition at 100 µM [%]
Cc1ccc(C(=O)N2CCC(c3ccc(C#N)cc3)CC2)cc1NC(=O)N[C@@H]1CCN(C(=O)OC(C)(C)C)C1 [Example 209, tert-butyl (3R)-3-[[5-[4-(4-cyanophenyl)piperidine-1-carbonyl]-2-methyl-phenyl]carbamoylamino]pyrrolidine-1-carboxylate]	89.7
Cc1ccc(C(=O)N2CCC(c3ccc(C#N)cc3)CC2)cc1NC(=O)N[C@H]1CCN(C(=O)OC(C)(C)C)C1 [Example 210, tert-butyl (3S)-3-[[5-[4-(4-cyanophenyl)piperidine-1-carbonyl]-2-methyl-phenyl]carbamoylamino]pyrrolidine-1-carboxylate]	97.4
Cc1ccc(C(=O)N2CCC(c3ccc(C#N)cc3)CC2)cc1NC(=O)NC1CCNCC1 [Example 211, 1-[5-[4-(4-cyanophenyl)piperidine-1-carbonyl]-2-methyl-phenyl]-3-(4-piperidyl)urea]	87.4
Cc1ccc(C(=O)N2CCC(c3ccc(C#N)cc3)CC2)cc1NC(=O)N[C@@H]1CCNC1 [Example 212, 1-[5-[4-(4-cyanophenyl)piperidine-1-carbonyl]-2-methyl-phenyl]-3-[(3R)-pyrrolidin-3-yl]urea]	97
Cc1ccc(C(=O)N2CCC(c3ccc(C#N)cc3)CC2)cc1NC(=O)N[C@H]1CCNC1 [Example 213, 1-[5-[4-(4-cyanophenyl)piperidine-1-carbonyl]-2-methyl-phenyl]-3-[(3S)-pyrrolidin-3-yl]urea]	88.6
Cc1ccc(C(=O)N2CCC(c3ccc(C#N)cc3)CC2)cc1NC(=O)NCCN(C)S(=O)(=O)C(C)C [Example 214, 1-[5-[4-(4-cyanophenyl)piperidine-1-carbonyl]-2-methyl-phenyl]-3-[2-(methyl-propan-2-ylsulfonyl-amino)ethyl]urea]	89.8
Cc1ccc(C(=O)N2CCC(c3ccc(C#N)cc3)CC2)cc1NC(=O)NCCCNS(C)(=O)=O [Example 215, 1-[5-[4-(4-cyanophenyl)piperidine-1-carbonyl]-2-methyl-phenyl]-3-(3-methanesulfonamidopropyl)urea]	100
CCS(=O)(=O)NCCCNC(=O)Nc1cc(C(=O)N2CCC(c3ccc(C#N)cc3)CC2)ccc1C [Example 216, 3-[5-[4-(4-cyanophenyl)piperidine-1-carbonyl]-2-methyl-phenyl]-1-[3-(ethylsulfonylamino)propyl]urea]	92.4
Cc1ccc(C(=O)N2CCC(c3ccc(C#N)cc3)CC2)cc1NC(=O)NCCCNS(=O)(=O)C(C)C [Example 217, 1-[5-[4-(4-cyanophenyl)piperidine-1-carbonyl]-2-methyl-phenyl]-3-[3-(propan-2-ylsulfonylamino)propyl]urea]	87
Cc1ccc(C(=O)N2CCC(c3ccc(C#N)cc3)CC2)cc1NC(=O)N[C@@H]1CCN(S(C)(=O)=O)C1 [Example 218, 1-[5-[4-(4-cyanophenyl)piperidine-1-carbonyl]-2-methyl-phenyl]-3-[(3R)-1-methylsulfonylpyrrolidin-3-yl]urea]	84.4
CCS(=O)(=O)N1CC[C@@H](NC(=O)Nc2cc(C(=O)N3CCC(c4ccc(C#N)cc4)CC3)ccc2C)C1 [Example 219, 3-[5-[4-(4-cyanophenyl)piperidine-1-carbonyl]-2-methyl-phenyl]-1-[(3R)-1-ethylsulfonylpyrrolidin-3-yl]urea]	88.8
CCC(=O)N1CC[C@H](NC(=O)Nc2cc(C(=O)N3CCC(c4ccc(C#N)cc4)CC3)ccc2C)C1 [Example 220, 3-[5-[4-(4-cyanophenyl)piperidine-1-carbonyl]-2-methyl-phenyl]-1-[(3S)-1-propanoylpyrrolidin-3-yl]urea]	96.7
Cc1ccc(C(=O)N2CCC(c3ccc(C#N)cc3)CC2)cc1NC(=O)N[C@H]1CCN(S(C)(=O)=O)C1 [Example 221, 1-[5-[4-(4-cyanophenyl)piperidine-1-carbonyl]-2-methyl-phenyl]-3-[(3S)-1-methylsulfonylpyrrolidin-3-yl]urea]	102
CCS(=O)(=O)N1CC[C@H](NC(=O)Nc2cc(C(=O)N3CCC(c4ccc(C#N)cc4)CC3)ccc2C)C1 [Example 222, 3-[5-[4-(4-cyanophenyl)piperidine-1-carbonyl]-2-methyl-phenyl]-1-[(3S)-1-ethylsulfonylpyrrolidin-3-yl]urea]	90.7
Cc1ccc(C(=O)N2CCC(c3ccc(C#N)cc3)CC2)cc1NC(=O)NCCCS(C)(=O)=O [Example 223, 1-[5-[4-(4-cyanophenyl)piperidine-1-carbonyl]-2-methyl-phenyl]-3-(3-methylsulfonylpropyl)urea]	92.8
N#Cc1ccc(C2CCN(C(=O)c3cc(NC(=O)NCc4ccccc4)ccc3F)CC2)cc1 [Example 224, 1-benzyl-3-[3-[4-(4-cyanophenyl)piperidine-1-carbonyl]-4-fluoro-phenyl]urea]	71.9
Cc1ccc(C(=O)N2CCC(c3ccc(C#N)cc3)CC2)cc1NC(=O)NC1CC1 [Example 225, 1-[5-[4-(4-cyanophenyl)piperidine-1-carbonyl]-2-methyl-phenyl]-3-cyclopropyl-urea]	89.9
CCC(C)NC(=O)Nc1cc(C(=O)N2CCC(c3ccc(C#N)cc3)CC2)ccc1C (stereo not shown) [Example 226, 1-butan-2-yl-3-[5-[4-(4-cyanophenyl)piperidine-1-carbonyl]-2-methyl-phenyl]urea]	84.2
CCCNC(=O)Nc1cc(C(=O)N2CCC(c3ccc(C#N)cc3)CC2)ccc1C [Example 227, 3-[5-[4-(4-cyanophenyl)piperidine-1-carbonyl]-2-methyl-phenyl]-1-propyl-urea]	90.1
Cc1ccc(C(=O)N2CCC(c3ccc(C#N)cc3)CC2)cc1NC(=O)NC1CCCCC1 [Example 228, 1-[5-[4-(4-cyanophenyl)piperidine-1-carbonyl]-2-methyl-phenyl]-3-cyclohexyl-urea]	82.1
Cc1ccc(C(=O)N2CCC(c3ccc(C#N)cc3)CC2)cc1NC(=O)NC(C)C(C)C (stereo not shown) [Example 229, 1-[5-[4-(4-cyanophenyl)piperidine-1-carbonyl]-2-methyl-phenyl]-3-(3-methylbutan-2-yl)urea]	88.7
Cc1ccc(C(=O)N2CCC(c3ccc(C#N)cc3)CC2)cc1NC(=O)NCCC(=O)NCCO [Example 230, 3-[[5-[4-(4-cyanophenyl)piperidine-1-carbonyl]-2-methyl-phenyl]carbamoylamino]-N-(2-hydroxyethyl)propanamide]	94.3
Cc1ccc(C(=O)N2CCC(c3ccc(C#N)cc3)CC2)cc1NC(=O)NCCNC(=O)CC(=O)N(C)C [Example 231, N-[2-[[5-[4-(4-cyanophenyl)piperidine-1-carbonyl]-2-methyl-phenyl]carbamoylamino]ethyl]-N′,N′-dimethyl-propanediamide]	90.3
CC(=O)NCC(C)NC(=O)Nc1cc(C(=O)N2CCC(c3ccc(C#N)cc3)CC2)ccc1C (stereo not shown) [Example 232, N-[2-[[5-[4-(4-cyanophenyl)piperidine-1-carbonyl]-2-methyl-phenyl]carbamoylamino]propyl]acetamide]	94.2
Cc1ccc(C(=O)N2CCC(c3ccc(C#N)cc3)CC2)cc1NC(=O)NCCCNC(=O)N1CCOCC1 [Example 233, N-[3-[[5-[4-(4-cyanophenyl)piperidine-1-carbonyl]-2-methyl-phenyl]carbamoylamino]propyl]morpholine-4-carboxamide]	86.5
